Assays:
[1] = molecular target: T1, Muscarinic acetylcholine receptor M5 (Homo sapiens, UniProt P08912); assay type: cell membranes, CHO-K1, Membrane; note: in other assays of this panel Not Active means under 50% inhibition at 10 µM
T1 sequence (P08912 whole entry): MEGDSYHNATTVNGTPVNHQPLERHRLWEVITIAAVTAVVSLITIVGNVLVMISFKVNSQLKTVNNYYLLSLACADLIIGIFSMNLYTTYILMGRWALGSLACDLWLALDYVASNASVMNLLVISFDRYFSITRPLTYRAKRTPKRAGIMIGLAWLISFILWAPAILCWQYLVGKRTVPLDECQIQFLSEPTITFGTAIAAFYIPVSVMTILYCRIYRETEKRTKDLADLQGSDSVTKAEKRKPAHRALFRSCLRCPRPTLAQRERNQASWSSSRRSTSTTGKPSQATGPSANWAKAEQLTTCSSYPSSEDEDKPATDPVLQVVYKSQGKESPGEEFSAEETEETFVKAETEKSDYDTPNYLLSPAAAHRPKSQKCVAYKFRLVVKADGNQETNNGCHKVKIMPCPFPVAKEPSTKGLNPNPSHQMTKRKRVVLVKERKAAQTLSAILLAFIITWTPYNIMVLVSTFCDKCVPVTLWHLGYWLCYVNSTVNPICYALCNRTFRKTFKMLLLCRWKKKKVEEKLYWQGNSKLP

[2] = molecular target: Nitric oxide synthase 1 (Rattus norvegicus, UniProt P29476); assay type: tissue-based, Cerebellum; note: in other assays of this panel Not Active means under 50% inhibition at 10 µM
[3] = molecular target: Protein kinase C alpha type (Homo sapiens, UniProt P17252); assay type: cell-based; conditions: sf9;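 note: inhibition of PKCalpha kinase activity measured in an enzyme assay with histone as the phosphorylation substrate; in other assays of this panel Not Active means under 50% inhibition at 10 µM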
[4] = molecular target: Carbonic anhydrase 2 (Homo sapiens, UniProt P00918); assay: DRUGMATRIX: Carbonic Anhydrase II enzyme inhibition (substrate: 4-Nitrophenyl acetate (4-NPA)); assay type: tissue-based; conditions: erythrocyte; Not Active = under 50% inhibition at 10 µM
[5] = molecular target: Protein phosphatase 3 catalytic subunit alpha (Homo sapiens, UniProt Q08209); parameters: species or system Escherichia coli;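 note: inhibition of calcineurin (PP2B) enzyme activity, measured with DiFMUP as the substrate; in other assays of this panel Not Active means under 50% inhibition at 10 µM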
[6] = molecular target: Beta-2 adrenergic receptor (Homo sapiens, UniProt P07550); assay: DRUGMATRIX: Adrenergic beta2 radioligand binding (ligand: [3H] CGP-12177); assay type: cell membranes, CHO, Membrane; conditions: cho; Not Active = under 50% inhibition at 10 µM
[7] = molecular target: T2, C-X-C chemokine receptor type 1 (Homo sapiens, UniProt P25024); note: in other assays of this panel Not Active means under 50% inhibition at 10 µM
T2 sequence (P25024 whole entry): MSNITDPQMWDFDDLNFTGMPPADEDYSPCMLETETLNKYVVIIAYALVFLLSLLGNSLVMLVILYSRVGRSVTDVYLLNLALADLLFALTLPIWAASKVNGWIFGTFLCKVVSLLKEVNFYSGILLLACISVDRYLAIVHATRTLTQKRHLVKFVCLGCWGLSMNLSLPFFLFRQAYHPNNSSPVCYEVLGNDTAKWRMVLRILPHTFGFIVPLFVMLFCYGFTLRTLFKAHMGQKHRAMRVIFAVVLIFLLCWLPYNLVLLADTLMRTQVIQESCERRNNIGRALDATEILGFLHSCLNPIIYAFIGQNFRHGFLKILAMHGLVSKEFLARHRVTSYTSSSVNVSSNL

[8] = molecular target: Aldo-keto reductase family 1 member B1 (Rattus norvegicus, UniProt P07943); assay type: tissue-based, Lens of camera-type eye

Chain of Nitric oxide synthase 1 (P29476 whole entry): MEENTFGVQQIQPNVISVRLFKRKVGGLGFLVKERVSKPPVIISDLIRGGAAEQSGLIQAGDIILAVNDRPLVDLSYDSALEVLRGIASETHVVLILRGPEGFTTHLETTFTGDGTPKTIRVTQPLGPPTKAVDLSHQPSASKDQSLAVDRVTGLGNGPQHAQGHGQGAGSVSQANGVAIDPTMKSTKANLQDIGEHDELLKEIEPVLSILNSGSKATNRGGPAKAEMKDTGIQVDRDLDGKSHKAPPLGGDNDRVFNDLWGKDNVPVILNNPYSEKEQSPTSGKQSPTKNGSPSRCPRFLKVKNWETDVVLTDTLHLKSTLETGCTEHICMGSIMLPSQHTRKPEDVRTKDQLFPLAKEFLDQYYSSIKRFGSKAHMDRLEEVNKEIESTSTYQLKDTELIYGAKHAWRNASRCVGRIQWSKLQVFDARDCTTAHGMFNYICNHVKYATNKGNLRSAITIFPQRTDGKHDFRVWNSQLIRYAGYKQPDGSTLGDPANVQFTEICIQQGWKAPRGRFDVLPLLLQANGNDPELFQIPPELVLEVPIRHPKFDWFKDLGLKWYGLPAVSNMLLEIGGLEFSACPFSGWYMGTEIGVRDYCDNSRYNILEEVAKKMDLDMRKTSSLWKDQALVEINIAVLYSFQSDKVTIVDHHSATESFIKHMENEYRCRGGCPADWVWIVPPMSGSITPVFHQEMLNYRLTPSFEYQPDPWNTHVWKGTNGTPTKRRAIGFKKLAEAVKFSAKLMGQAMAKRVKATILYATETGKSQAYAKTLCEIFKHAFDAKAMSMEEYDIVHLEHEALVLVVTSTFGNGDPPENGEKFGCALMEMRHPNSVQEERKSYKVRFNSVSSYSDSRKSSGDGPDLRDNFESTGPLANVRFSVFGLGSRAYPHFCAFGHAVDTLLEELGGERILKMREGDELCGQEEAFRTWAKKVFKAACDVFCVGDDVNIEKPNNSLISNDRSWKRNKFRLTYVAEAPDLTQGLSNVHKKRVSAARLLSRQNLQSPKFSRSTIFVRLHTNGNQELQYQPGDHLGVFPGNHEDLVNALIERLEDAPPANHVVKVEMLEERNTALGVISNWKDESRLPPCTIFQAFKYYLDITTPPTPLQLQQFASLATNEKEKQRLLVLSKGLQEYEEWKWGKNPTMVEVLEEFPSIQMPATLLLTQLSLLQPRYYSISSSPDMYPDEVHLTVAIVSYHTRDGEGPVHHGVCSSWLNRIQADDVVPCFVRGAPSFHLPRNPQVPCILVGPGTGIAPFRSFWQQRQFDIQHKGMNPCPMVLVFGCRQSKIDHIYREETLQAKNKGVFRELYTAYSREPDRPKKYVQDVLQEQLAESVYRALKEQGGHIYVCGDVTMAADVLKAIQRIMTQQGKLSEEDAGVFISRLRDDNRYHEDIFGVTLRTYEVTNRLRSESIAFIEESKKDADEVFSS

| Compound | IC50 ([1]; cho-k1) | IC50 [2] | IC50 [3] | IC50 [4] | IC50 [5] | IC50 [6] | IC50 [7] | IC50 [8] | Ki ([1]; cho-k1) | Ki [2] | Ki [3] | Ki [4] | Ki [5] | Ki [6] | Ki [7] | Ki [8] | IC50 ([1]; read-out: IC50) | Ki ([1]; read-out: Ki) |
| --- | --- | --- | --- | --- | --- | --- | --- | --- | --- | --- | --- | --- | --- | --- | --- | --- | --- | --- |
| COC(=O)Nc1nc2ccc([S+]([O-])c3ccccc3)cc2[nH]1 (configuration not stated) [OXFENDAZOLE] | Not Active | Not Active | Not Active | Not Active | Not Active | Not Active | Not Active | Not Active |  |  |  |  |  |  |  |  |  |  |
| CC(=O)[C@@]1(O)CC[C@H]2[C@@H]3CCC4=CC(=O)CC[C@]4(C)[C@H]3CC[C@@]21C [HYDROXYPROGESTERONE] | Not Active | Not Active | Not Active | Not Active | Not Active | Not Active | Not Active | Not Active |  |  |  |  |  |  |  |  |  |  |
| Oc1c(Cl)cc(Cl)c(Cl)c1Cc1c(O)c(Cl)cc(Cl)c1Cl [HEXACHLOROPHENE] | Not Active | Not Active | Not Active | Not Active | Not Active | Not Active | Not Active | Not Active |  |  |  |  |  |  |  |  |  |  |
| COC1=C(OC)C(=O)C(CCCCCCCCCCO)=C(C)C1=O [IDEBENONE] | Not Active | Not Active | Not Active | Not Active | Not Active | Not Active | Not Active | Not Active |  |  |  |  |  |  |  |  |  |  |
| C[C@]12C=CC(=O)C=C1CC[C@@H]1[C@@H]2[C@@H](O)C[C@@]2(C)[C@H]1CC[C@]2(O)C(=O)CO [PREDNISOLONE] | Not Active | Not Active | Not Active | Not Active | Not Active | Not Active | Not Active | Not Active |  |  |  |  |  |  |  |  |  |  |
| O=C1O[C@H]([C@@H](O)CO)C(O)=C1O [ASCORBIC ACID] | Not Active | Not Active | Not Active | Not Active | Not Active | Not Active | Not Active | Not Active |  |  |  |  |  |  |  |  |  |  |
| COc1ccc(C2C(=O)c3ccccc3C2=O)cc1 [ANISINDIONE] | Not Active | Not Active | Not Active | Not Active | Not Active | Not Active | Not Active | Not Active |  |  |  |  |  |  |  |  |  |  |
| Brc1c(NC2=NCCN2)ccc2nccnc12 [BRIMONIDINE] | Not Active | Not Active | Not Active | Not Active | Not Active | Not Active | Not Active | Not Active |  |  |  |  |  |  |  |  |  |  |
| COc1ccc(C(=O)N2CCCC2=O)cc1 | Not Active | Not Active | Not Active | Not Active | Not Active | Not Active | Not Active | Not Active |  |  |  |  |  |  |  |  |  |  |
| C[C@@H]1C[C@H]2[C@@H]3CCC4=CC(=O)C=C[C@]4(C)[C@@]3(F)[C@@H](O)C[C@]2(C)[C@@]1(O)C(=O)CO [DEXAMETHASONE] | Not Active | Not Active | Not Active | Not Active | Not Active | Not Active | Not Active | Not Active |  |  |  |  |  |  |  |  |  |  |
| O=C(c1ccccc1C(F)(F)F)N1CCC(Cc2ccccc2)CC1 | Not Active | Not Active | Not Active | Not Active | Not Active | Not Active | Not Active | Not Active |  |  |  |  |  |  |  |  |  |  |
| CCC1(C)CC(=O)NC1=O (configuration not stated) [ETHOSUXIMIDE] | Not Active | Not Active | Not Active | Not Active | Not Active | Not Active | Not Active | Not Active |  |  |  |  |  |  |  |  |  |  |
| GRAMICIDIN | Not Active | Not Active | Not Active | Not Active | Not Active | Not Active | Not Active | Not Active | Not Active | Not Active | Not Active | Not Active | Not Active | Not Active | Not Active | Not Active |  |  |
| OC(CCCN1CCCCC1)(c1ccccc1)c1ccccc1 [DIPHENIDOL] |  | Not Active | Not Active | Not Active | Not Active | Not Active | Not Active | Not Active |  |  |  |  |  |  |  |  | 1190 nM | 855 nM |
| CCC(=O)O[C@]1(C(=O)CCl)[C@@H](C)C[C@H]2[C@@H]3CCC4=CC(=O)C=C[C@]4(C)[C@@]3(F)[C@@H](O)C[C@@]21C [CLOBETASOL PROPIONATE] | Not Active | Not Active | Not Active | Not Active | Not Active | Not Active | Not Active | Not Active |  |  |  |  |  |  |  |  |  |  |
| Cc1c(OCC(F)(F)F)ccnc1C[S+]([O-])c1nc2ccccc2[nH]1 (configuration not stated) [LANSOPRAZOLE] | Not Active | Not Active | Not Active | Not Active | Not Active | Not Active | Not Active | Not Active |  |  |  |  |  |  |  |  |  |  |
| CCCOc1ccc(C(=O)OCCN(CC)CC)cc1N [PROPARACAINE] | Not Active | Not Active | Not Active | Not Active | Not Active | Not Active | Not Active | Not Active |  |  |  |  |  |  |  |  |  |  |
| CC(=O)[C@H]1[C@H](C#N)C[C@H]2[C@@H]3CC=C4C[C@@H](O)CC[C@]4(C)[C@H]3CC[C@@]21C [PREGNENOLONE CARBONITRILE] | Not Active | Not Active | Not Active | Not Active | Not Active | Not Active | Not Active | Not Active |  |  |  |  |  |  |  |  |  |  |
| CN(C)CC[C@@H](c1ccc(Cl)cc1)c1ccccn1 [DEXCHLORPHENIRAMINE] |  | Not Active | Not Active | Not Active | Not Active | Not Active | Not Active | Not Active |  |  |  |  |  |  |  |  | 1040 nM | 749 nM |
| CC[C@H](C)[C@H]1O[C@]2(C=C[C@@H]1C)C[C@@H]1C[C@@H](C/C=C(\C)[C@@H](O[C@H]3C[C@H](OC)[C@@H](O[C@H]4C[C@H](OC)[C@@H](O)[C@H](C)O4)[C@H](C)O3)[C@@H](C)/C=C/C=C3\CO[C@@H]4[C@H](O)C(C)=C[C@@H](C(=O)O1)[C@]34O)O2.CO[C@H]1C[C@H](O[C@H]2[C@H](C)O[C@@H](O[C@@H]3/C(C)=C/C[C@@H]4C[C@@H](C[C@]5(C=C[C@H](C)[C@@H](C(C)C)O5)O4)OC(=O)[C@@H]4C=C(C)[C@@H](O)[C@H]5OC/C(=C\C=C\[C@@H]3C)[C@]54O)C[C@@H]2OC)O[C@@H](C)[C@@H]1O [ABAMECTIN] | Not Active | Not Active | Not Active | Not Active | Not Active | Not Active | Not Active | Not Active |  |  |  |  |  |  |  |  |  |  |
| C[C@@H]1O[C@@H](O[C@@H]2C=C3CC[C@@H]4[C@H](CC[C@]5(C)[C@@H](c6ccc(=O)oc6)CC[C@]45O)[C@@]3(C)CC2)[C@H](O)[C@H](O)[C@H]1O [PROSCILLARIDIN] | Not Active | Not Active | Not Active | Not Active | Not Active | Not Active | Not Active | Not Active |  |  |  |  |  |  |  |  |  |  |
| CN(C)[C@@H]1C(O)=C(C(N)=O)C(=O)[C@@]2(O)C(O)=C3C(=O)c4c(O)ccc(Cl)c4[C@@](C)(O)[C@H]3C[C@@H]12 [CHLORTETRACYCLINE] | Not Active | Not Active | Not Active | Not Active | Not Active | Not Active | Not Active | Not Active |  |  |  |  |  |  |  |  |  |  |
| Nc1ccn([C@@H]2O[C@H](CO)[C@@H](O)[C@@H]2O)c(=O)n1 [CYTARABINE] | Not Active | Not Active | Not Active | Not Active | Not Active | Not Active | Not Active | Not Active |  |  |  |  |  |  |  |  |  |  |
| CC(C)c1cccc(C(C)C)c1O [PROPOFOL] | Not Active | Not Active | Not Active | Not Active | Not Active | Not Active | Not Active | Not Active |  |  |  |  |  |  |  |  |  |  |

Reference: ChEMBL document CHEMBL1909046, “DrugMatrix in vitro pharmacology data”
